Reference: US7282507B2, “Indole derivatives as selective androgen receptor modulators (SARMS)” (Janssen Pharmaceutica N.V., priority 2004, dated 2007)
“And” between values parts separate entries of the source, which are not always exact repeats. Equal entries are not always repeated. Where two headings read alike, the source gives them in different places.

Target: T1, androgen receptor (AdEasy+rAR, COS-7 cells) (Rattus norvegicus, UniProt P15207)
T1 construct: expressed in transfected cells; host or cells: COS-7 cells transduced with adenovirus AdEasy+rAR
T1 sequence (P15207 1-902): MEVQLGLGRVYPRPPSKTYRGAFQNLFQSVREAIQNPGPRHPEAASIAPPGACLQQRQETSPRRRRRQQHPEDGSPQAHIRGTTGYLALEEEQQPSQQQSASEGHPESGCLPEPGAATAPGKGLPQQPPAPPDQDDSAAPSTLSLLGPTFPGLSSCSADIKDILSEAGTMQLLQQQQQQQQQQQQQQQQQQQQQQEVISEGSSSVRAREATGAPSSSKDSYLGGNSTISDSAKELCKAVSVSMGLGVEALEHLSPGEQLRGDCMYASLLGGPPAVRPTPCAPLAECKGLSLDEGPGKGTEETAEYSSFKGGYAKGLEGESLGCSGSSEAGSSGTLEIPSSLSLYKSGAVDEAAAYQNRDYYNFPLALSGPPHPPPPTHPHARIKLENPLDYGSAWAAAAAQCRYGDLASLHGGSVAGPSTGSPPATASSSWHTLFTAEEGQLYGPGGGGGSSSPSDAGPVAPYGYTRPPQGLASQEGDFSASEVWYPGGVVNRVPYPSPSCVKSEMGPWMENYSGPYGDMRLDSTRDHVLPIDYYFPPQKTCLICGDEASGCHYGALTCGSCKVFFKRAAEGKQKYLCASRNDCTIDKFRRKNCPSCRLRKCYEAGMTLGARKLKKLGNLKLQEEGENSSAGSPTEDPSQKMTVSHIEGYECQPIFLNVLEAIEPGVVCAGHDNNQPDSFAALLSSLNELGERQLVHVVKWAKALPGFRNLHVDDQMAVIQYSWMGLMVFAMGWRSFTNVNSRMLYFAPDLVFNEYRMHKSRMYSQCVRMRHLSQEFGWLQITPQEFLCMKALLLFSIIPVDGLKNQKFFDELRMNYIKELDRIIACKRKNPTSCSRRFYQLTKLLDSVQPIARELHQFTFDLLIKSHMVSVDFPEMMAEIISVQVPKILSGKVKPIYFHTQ
Assay: COS-7 Whole-Cell Androgen Receptor Binding Assay, Adenovirus Transduction
Conditions: for % Inhibition, COS Binding / inhibition at 3 µM: concentration of 3000 nM
How it was run: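 COS-7 cells in phenol red-free DMEM/F12 with 10% charcoal-treated FBS were transduced with AdEasy+rAR adenovirus (moi 1:50 per well), exposed to test compound in duplicate and incubated for 48 h at 37° C. Cells were then lysed in 0.5% Triton X-100 and bound radioactivity counted by scintillation.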

[1] = read-out: IC50 (nM), COS Binding

| Compound | % Inhibition, COS Binding (3 µM) | IC50 [1] | IC50 (IC50 (nM), COS Binding) | inhibition at 3 µM | % Inhibition, COS Binding |
| --- | --- | --- | --- | --- | --- |
| CCS(=O)(=O)CC(C)(O)c1cc2cc([N+](=O)[O-])c(C(F)(F)F)cc2[nH]1 (stereo not shown) [Compound 151] | 55% | > 970 nM and 2190 nM |  |  |  |
| CCS(=O)(=O)C[C@](C)(O)c1cc2cc([N+](=O)[O-])c(C(F)(F)F)cc2[nH]1 [Compound 156, 1-Ethanesulfonyl-2-(5-nitro-6-trifluoromethyl-1H-indol-2-yl)-propan-2-ol] | 52% |  | > 1000 nM | 42% |  |
| CCSCC(C)(O)c1cc2cc([N+](=O)[O-])c(C(F)(F)F)cc2n1C (racemic) [Compound 165] |  | > 3000 nM |  | 69% |  |
| CC(O)(CSc1ccc([N+](=O)[O-])cc1)c1cc2cc(Cl)c(C(F)(F)F)cc2[nH]1 (stereo not shown) [Compound 122] |  | > 1600 nM |  | 66% |  |
| CCSCC(C)(O)c1cc2cc([N+](=O)[O-])c(C(F)(F)F)cc2[nH]1 (single isomer, unassigned) [Compound 150] | 81% and 74% | 165 nM and 627 nM |  |  |  |
| CC(O)(CCS(C)(=O)=O)c1cc2cc([N+](=O)[O-])c(C(F)(F)F)cc2[nH]1 (stereo not shown) [Compound 49] |  | > 3000 nM |  | 30% |  |
| CC[S+]([O-])C[C@](C)(O)c1cc2cc([N+](=O)[O-])c(C(F)(F)F)cc2[nH]1 (stereo in doubt) [Compound 155, 1-Ethanesulfinyl-2-(5-nitro-6-trifluoromethyl-1H-indol-2-yl)-propan-2-ol] |  |  |  | 35% |  |
| CCSCC(C)(O)c1cc2cc([N+](=O)[O-])c(C(F)(F)F)cc2[nH]1 (single isomer, unassigned) [Compound 149] |  | 780 nM and > 790 nM |  | 63% |  |
| CCSCC(C)(O)c1cc2cc([N+](=O)[O-])c(C(F)(F)F)cc2n1S(C)(=O)=O (stereo not shown) [Compound 141] |  | > 3000 nM |  | 42% |  |
| CC(O)(CSC1CCCC1)c1cc2cc([N+](=O)[O-])c(C(F)(F)F)cc2[nH]1 (stereo not shown) [Compound 173] |  | > 3000 nM |  | 17% |  |
| COc1ccc(SCC(C)(O)c2cc3cc(Cl)c(C(F)(F)F)cc3[nH]2)cc1 (stereo not shown) [Compound 131] |  | > 1600 nM |  | 84% |  |
| CC(O)(CS(C)(=O)=O)c1cc2cc([N+](=O)[O-])c(C(F)(F)F)cc2[nH]1 (stereo not shown) [Compound 148] | 32% | > 2400 nM |  |  |  |
| CC(O)(CSCc1ccccc1)c1cc2cc([N+](=O)[O-])c(C(F)(F)F)cc2[nH]1 (stereo not shown) [Compound 160] |  | 250 nM |  | 84% |  |
| COc1ccc(SCC(C)(O)c2cc3cc(Cl)c(C(F)(F)F)cc3n2S(C)(=O)=O)cc1 (racemic) [Compound 130] |  |  |  |  | −8% |
| CC(O)(CS(C)(=O)=O)c1cc2cc(Cl)c(C(F)(F)F)cc2[nH]1 (stereo not shown) [Compound 138] |  | 317 nM |  | 78% |  |
| CCSCC(O)c1cc2cc([N+](=O)[O-])c(C(F)(F)F)cc2[nH]1 (stereo not shown) [Compound 158] | 56% | 160 nM and 550 nM |  | 62% |  |
| CC(O)(CSc1ccc(N)cc1)c1cc2cc(Cl)c(C(F)(F)F)cc2[nH]1 (stereo not shown) [Compound 104] |  |  |  | 94% |  |
| CCCSCC(C)(O)c1cc2cc([N+](=O)[O-])c(C(F)(F)F)cc2[nH]1 (stereo not shown) [Compound 168] |  | > 3000 nM |  | 60% |  |
| CC(O)(CS(=O)(=O)c1ccc(N)cc1)c1cc2cc(Cl)c(C(F)(F)F)cc2[nH]1 (stereo not shown) [Compound 118] |  | > 1500 nM |  | 62% |  |

| Compound | % Inhibition, COS Binding (3 µM) | IC50 [1] | IC50 (IC50 (nM), COS Binding) | inhibition at 3 µM | % Inhibition, COS Binding |
| --- | --- | --- | --- | --- | --- |
| CC(O)(CSCC(F)(F)F)c1cc2cc([N+](=O)[O-])c(C(F)(F)F)cc2[nH]1 (stereo not shown) [Compound 171] | 94% | 145 nM |  | 92% |  |
| CC(O)(CS(=O)(=O)c1ccc(O)cc1)c1cc2cc(Cl)c(C(F)(F)F)cc2[nH]1 (stereo not shown) [Compound 121] |  | > 1800 nM |  | 72% |  |
| CSCC(C)(O)c1cc2cc([N+](=O)[O-])c(C(F)(F)F)cc2[nH]1 (single isomer, unassigned) [Compound 144] |  | 375 nM |  |  |  |
| CC(C)SCC(C)(O)c1cc2cc([N+](=O)[O-])c(C(F)(F)F)cc2[nH]1 (stereo not shown) [Compound 164] |  | > 1000 nM |  | 68% |  |
| CSCC(C)(O)c1cc2cc([N+](=O)[O-])c(C(F)(F)F)cc2[nH]1 (single isomer, unassigned) [Compound 145] |  | 36.7 nM |  | 84.7% |  |
| COc1ccc(S(=O)(=O)CC(C)(O)c2cc3cc(Cl)c(C(F)(F)F)cc3[nH]2)cc1 (racemic) [Compound 129] |  |  |  |  | 10% |
| CC(O)(C[S+]([O-])Cc1ccccc1)c1cc2cc([N+](=O)[O-])c(C(F)(F)F)cc2[nH]1 (mixture of isomers) [Compound 161] |  |  |  |  | 20% |
| CC(O)(CSc1ccc(O)cc1)c1cc2cc(Cl)c(C(F)(F)F)cc2[nH]1 (stereo not shown) [Compound 120] |  | 205 nM |  | 86% |  |
| CC(O)(CS(C)(=O)=O)c1cc2cc([N+](=O)[O-])c(C(F)(F)F)cc2[nH]1 (stereo not shown) [Compound 147] | 6.1% | > 3000 nM |  |  |  |
| CCC(O)(CS(=O)(=O)CC)c1cc2cc([N+](=O)[O-])c(C(F)(F)F)cc2[nH]1 (stereo not shown) [Compound 176] |  |  |  | 75% |  |
| CCS(=O)(=O)CC(C)(O)c1cc2cc([N+](=O)[O-])c(C(F)(F)F)cc2[nH]1 (stereo not shown) [Compound 143] |  | > 1500 nM |  | 68% |  |
| CCSCC(O)(CC)c1cc2cc([N+](=O)[O-])c(C(F)(F)F)cc2[nH]1 (stereo not shown) [Compound 169] |  | 48 nM |  | 90% |  |
| CSCC(C)(O)c1cc2cc(C#N)c(C(F)(F)F)cc2[nH]1 (stereo not shown) [Compound 136] |  | 527 nM |  | 4.8% |  |
| CC(C)CSCC(C)(O)c1cc2cc([N+](=O)[O-])c(C(F)(F)F)cc2[nH]1 (stereo not shown) [Compound 170] |  | > 3000 nM |  | 67% |  |
| CCSCC(C)(O)c1cc2cc([N+](=O)[O-])c(C(F)(F)F)cc2[nH]1 (racemic) [Compound 142] |  | 220 nM |  | 90% |  |
| CSCCC(C)(O)c1cc2cc([N+](=O)[O-])c(C(F)(F)F)cc2[nH]1 (stereo not shown) [Compound 47] |  | > 1000 nM |  | 78% |  |
| CSCC(C)(O)c1cc2cc(Cl)c(C(F)(F)F)cc2[nH]1 (stereo not shown) [Compound 135] |  | 320 nM |  | 98% |  |
| CC(O)(CS(C)(=O)=O)c1cc2cc([N+](=O)[O-])c(C(F)(F)F)cc2[nH]1 (stereo not shown) [Compound 140] | 51.5% | > 1500 nM |  |  |  |
